Experimental data taken from the kinase profiling compilation of Christmann-Franck et al. (2016).

Tests used:
Assay in all cases: radiometric filter-binding kinase assay, Kinaseprofiler
[1] = system: AKT1 (human), P31749 [S478G]; details: compound 1.0 µM; ATP 155 µM
[2] = system: AKT2 (human), P31751 [S474D]; details: compound 1.0 µM; ATP 200 µM
[3] = system: AKT3 (human), Q9Y243 [S472D]; details: compound 1.0 µM; ATP 45 µM
[4] = system: AXL (human), P30530 [Q764R]; details: compound 1.0 µM; ATP 90 µM
BRSK1 (human) = BRSK1 (human) (UniProt Q8TDC3); details: compound 1.0 µM; ATP 200 µM
BRSK1 (human), sequence (Q8TDC3 whole entry, looked up): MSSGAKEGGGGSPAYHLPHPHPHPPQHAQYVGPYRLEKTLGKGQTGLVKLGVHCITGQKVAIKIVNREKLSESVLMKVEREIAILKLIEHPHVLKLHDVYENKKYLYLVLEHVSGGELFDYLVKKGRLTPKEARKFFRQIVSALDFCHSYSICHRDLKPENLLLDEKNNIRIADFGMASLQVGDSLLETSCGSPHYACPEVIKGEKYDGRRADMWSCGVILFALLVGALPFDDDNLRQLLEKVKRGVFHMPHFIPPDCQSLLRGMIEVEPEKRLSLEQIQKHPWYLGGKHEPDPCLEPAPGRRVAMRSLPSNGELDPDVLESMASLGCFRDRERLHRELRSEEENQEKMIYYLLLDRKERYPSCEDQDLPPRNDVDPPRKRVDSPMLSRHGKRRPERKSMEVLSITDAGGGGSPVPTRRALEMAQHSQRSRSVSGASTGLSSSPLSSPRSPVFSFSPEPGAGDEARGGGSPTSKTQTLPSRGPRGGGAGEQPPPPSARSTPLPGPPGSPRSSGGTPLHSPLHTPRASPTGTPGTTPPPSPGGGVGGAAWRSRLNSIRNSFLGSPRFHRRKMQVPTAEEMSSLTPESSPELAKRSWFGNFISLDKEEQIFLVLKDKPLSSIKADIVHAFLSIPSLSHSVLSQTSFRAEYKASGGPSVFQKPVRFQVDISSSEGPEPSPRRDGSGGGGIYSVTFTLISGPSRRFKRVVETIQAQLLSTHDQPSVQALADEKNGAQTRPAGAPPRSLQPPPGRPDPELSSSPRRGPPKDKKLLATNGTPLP

CDK1 CCNB1 (human) = CDK1 CCNB1 (human) (UniProt P06493+P14635); details: compound 1.0 µM; ATP 45 µM
EGFR (human) = EGFR (human) (UniProt P00533); details: compound 1.0 µM; ATP 10 µM
[5] = system: EGFR (human), P00533 [L858R]; details: compound 1.0 µM; ATP 10 µM
EPHA5 (human) = EPHA5 (human) (UniProt P54756); details: compound 1.0 µM; ATP 10 µM
EPHA7 (human) = EPHA7 (human) (UniProt Q15375); details: compound 1.0 µM; ATP 90 µM
[6] = system: EPHB2 (human), P29323 [A848S/K918E]; details: compound 1.0 µM; ATP 10 µM
EPHB4 (human) = EPHB4 (human) (UniProt P54760); details: compound 1.0 µM; ATP 10 µM
ERBB4 (human) = ERBB4 (human) (UniProt Q15303); details: compound 1.0 µM; ATP 15 µM
FGFR1 (human) = FGFR1 (human) (UniProt P11362); details: compound 1.0 µM; ATP 200 µM
FLT1 (human) = FLT1 (human) (UniProt P17948); details: compound 1.0 µM; ATP 200 µM
[7] = system: FLT3 (human), P36888 [D835Y]; details: compound 1.0 µM; ATP 200 µM
[8] = system: FLT4 (human), P35916 [V1128L/H1146R]; details: compound 1.0 µM; ATP 200 µM
[9] = system: HIPK2 (human), Q9H2X6 [I471N]; details: compound 1.0 µM; ATP 10 µM
HIPK2 (human), Q9H2X6 [I471N], sequence (Q9H2X6 whole entry, looked up, stated change not applied): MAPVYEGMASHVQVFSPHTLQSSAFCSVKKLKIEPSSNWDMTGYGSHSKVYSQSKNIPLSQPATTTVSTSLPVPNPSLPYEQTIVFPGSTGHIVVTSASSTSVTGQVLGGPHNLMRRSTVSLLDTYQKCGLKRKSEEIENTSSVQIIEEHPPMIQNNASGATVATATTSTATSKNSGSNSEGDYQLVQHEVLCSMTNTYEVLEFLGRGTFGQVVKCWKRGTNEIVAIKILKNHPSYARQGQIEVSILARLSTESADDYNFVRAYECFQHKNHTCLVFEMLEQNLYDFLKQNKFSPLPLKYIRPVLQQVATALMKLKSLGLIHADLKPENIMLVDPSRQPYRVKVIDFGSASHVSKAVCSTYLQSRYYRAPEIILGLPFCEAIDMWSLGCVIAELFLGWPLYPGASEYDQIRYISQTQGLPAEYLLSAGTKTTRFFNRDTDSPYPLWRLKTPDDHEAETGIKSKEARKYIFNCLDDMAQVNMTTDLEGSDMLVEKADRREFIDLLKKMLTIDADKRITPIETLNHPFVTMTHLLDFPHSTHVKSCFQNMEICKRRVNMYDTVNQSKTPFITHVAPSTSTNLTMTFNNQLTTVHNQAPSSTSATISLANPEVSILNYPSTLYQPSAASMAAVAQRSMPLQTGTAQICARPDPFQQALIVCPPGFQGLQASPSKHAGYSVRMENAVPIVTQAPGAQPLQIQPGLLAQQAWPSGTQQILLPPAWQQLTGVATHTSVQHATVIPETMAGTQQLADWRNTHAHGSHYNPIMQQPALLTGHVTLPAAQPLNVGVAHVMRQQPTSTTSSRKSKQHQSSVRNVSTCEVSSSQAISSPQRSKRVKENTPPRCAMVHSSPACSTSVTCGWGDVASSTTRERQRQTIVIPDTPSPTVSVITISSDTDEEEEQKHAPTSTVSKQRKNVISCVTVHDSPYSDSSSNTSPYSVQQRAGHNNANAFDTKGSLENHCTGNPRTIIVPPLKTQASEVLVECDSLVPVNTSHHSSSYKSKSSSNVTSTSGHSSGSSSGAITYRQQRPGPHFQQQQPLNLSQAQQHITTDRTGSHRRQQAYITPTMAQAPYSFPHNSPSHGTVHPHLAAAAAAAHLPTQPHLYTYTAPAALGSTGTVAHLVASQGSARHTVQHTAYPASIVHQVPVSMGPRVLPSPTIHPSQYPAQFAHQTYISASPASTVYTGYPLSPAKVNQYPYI

HIPK3 (human) = HIPK3 (human) (UniProt Q9H422); details: compound 1.0 µM; ATP 15 µM
[10] = molecular target: JAK2 JH1 catalytic (human) (UniProt O60674); details: compound 1.0 µM; ATP 45 µM
[11] = system: KIT (human), P10721 [D816V]; details: compound 1.0 µM; ATP 200 µM
LCK (human) = LCK (human) (UniProt P06239); details: compound 1.0 µM; ATP 90 µM
MAP2K6 (human) = MAP2K6 (human) (UniProt P52564); details: compound 1.0 µM; ATP 10 µM
MAP2K7 (human) = MAP2K7 (human) (UniProt O14733); details: compound 1.0 µM; ATP 10 µM
MAP3K7 (human) = MAP3K7 (human) (UniProt O43318); details: compound 1.0 µM; ATP 45 µM
MAP3K9 (human) = MAP3K9 (human) (UniProt P80192); details: compound 1.0 µM; ATP 45 µM
MAP3K9 (human), sequence (P80192 whole entry, looked up): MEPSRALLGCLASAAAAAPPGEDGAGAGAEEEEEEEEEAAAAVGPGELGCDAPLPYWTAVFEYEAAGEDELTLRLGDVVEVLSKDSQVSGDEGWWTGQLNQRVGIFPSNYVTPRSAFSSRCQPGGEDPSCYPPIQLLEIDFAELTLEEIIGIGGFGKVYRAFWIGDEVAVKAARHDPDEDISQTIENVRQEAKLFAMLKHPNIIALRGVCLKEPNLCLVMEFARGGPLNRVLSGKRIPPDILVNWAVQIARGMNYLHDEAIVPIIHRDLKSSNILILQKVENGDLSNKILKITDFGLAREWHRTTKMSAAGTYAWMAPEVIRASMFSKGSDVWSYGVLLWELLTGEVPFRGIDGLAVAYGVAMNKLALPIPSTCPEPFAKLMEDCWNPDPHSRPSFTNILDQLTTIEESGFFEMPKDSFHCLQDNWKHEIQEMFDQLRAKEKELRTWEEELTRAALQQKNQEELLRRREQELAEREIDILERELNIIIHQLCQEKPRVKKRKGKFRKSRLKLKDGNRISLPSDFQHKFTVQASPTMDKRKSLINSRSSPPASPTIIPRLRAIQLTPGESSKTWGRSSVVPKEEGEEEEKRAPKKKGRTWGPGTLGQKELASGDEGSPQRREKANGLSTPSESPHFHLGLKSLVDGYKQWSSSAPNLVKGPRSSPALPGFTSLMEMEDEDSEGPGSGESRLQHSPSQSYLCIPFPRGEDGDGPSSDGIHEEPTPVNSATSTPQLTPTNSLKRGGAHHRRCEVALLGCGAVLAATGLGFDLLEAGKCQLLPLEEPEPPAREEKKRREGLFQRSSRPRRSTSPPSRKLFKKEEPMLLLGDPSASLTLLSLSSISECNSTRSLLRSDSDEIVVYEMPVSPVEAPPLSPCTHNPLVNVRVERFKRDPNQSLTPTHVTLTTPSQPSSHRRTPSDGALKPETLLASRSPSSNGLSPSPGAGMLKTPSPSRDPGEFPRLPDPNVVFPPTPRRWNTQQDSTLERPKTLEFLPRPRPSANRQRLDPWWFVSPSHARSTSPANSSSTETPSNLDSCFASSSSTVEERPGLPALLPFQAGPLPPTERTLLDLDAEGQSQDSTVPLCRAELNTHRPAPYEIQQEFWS

MAPK10 (human) = MAPK10 (human) (UniProt P53779); details: compound 1.0 µM; ATP 10 µM
MAPK14 (human) = MAPK14 (human) (UniProt Q16539); details: compound 1.0 µM; ATP 90 µM
[12] = system: MAPKAPK2 (human), P49137 [A399G]; details: compound 1.0 µM; ATP 90 µM
MAPKAPK2 (human), P49137 [A399G], sequence (P49137 whole entry A399G, looked up): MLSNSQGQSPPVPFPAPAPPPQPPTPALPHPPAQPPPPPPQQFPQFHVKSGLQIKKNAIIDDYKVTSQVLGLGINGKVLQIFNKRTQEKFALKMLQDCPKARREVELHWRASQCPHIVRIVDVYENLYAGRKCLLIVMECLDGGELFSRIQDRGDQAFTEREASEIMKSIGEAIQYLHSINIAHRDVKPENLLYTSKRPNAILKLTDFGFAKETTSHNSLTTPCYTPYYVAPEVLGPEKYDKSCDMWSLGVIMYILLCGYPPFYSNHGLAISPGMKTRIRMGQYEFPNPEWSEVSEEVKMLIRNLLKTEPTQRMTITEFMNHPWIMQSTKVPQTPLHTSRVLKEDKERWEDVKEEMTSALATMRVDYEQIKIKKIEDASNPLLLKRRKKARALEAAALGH

[13] = system: MAPKAPK5 (human), Q8IW41 [R291E]; details: compound 1.0 µM; ATP 15 µM
NEK2 (human) = NEK2 (human) (UniProt P51955); details: compound 1.0 µM; ATP 120 µM
PDPK1 (human) = PDPK1 (human) (UniProt O15530); details: compound 1.0 µM; ATP 10 µM
PDPK1 (human), sequence (O15530 whole entry, looked up): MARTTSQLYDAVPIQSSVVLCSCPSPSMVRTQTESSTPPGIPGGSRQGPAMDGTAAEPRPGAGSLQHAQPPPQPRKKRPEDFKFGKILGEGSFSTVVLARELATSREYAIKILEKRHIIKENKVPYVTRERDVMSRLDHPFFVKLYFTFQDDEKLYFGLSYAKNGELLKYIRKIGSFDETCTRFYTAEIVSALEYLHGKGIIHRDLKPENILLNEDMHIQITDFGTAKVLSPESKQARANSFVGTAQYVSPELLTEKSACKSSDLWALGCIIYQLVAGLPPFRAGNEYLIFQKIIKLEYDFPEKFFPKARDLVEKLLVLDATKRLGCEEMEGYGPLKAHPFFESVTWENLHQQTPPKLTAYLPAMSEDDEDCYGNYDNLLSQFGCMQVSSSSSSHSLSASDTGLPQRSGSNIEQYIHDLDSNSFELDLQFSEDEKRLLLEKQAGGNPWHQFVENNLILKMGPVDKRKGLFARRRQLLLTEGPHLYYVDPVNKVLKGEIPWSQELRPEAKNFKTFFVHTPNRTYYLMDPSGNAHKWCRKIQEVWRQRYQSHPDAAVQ

PRKCB1 (human) = PRKCB1 (human) (UniProt P05771); details: compound 1.0 µM; ATP 10 µM
RET (human) = RET (human) (UniProt P07949); details: compound 1.0 µM; ATP 70 µM
RPS6KA2 KD1 KD2 (human) = RPS6KA2 KD1 KD2 (human) (UniProt Q15349); details: compound 1.0 µM; ATP 10 µM
[14] = system: SGK1 (human), O00141 [S422D]; details: compound 1.0 µM; ATP 90 µM
SRC (human) = SRC (human) (UniProt P12931); details: compound 1.0 µM; ATP 200 µM
SRC (human), sequence (P12931 whole entry, looked up): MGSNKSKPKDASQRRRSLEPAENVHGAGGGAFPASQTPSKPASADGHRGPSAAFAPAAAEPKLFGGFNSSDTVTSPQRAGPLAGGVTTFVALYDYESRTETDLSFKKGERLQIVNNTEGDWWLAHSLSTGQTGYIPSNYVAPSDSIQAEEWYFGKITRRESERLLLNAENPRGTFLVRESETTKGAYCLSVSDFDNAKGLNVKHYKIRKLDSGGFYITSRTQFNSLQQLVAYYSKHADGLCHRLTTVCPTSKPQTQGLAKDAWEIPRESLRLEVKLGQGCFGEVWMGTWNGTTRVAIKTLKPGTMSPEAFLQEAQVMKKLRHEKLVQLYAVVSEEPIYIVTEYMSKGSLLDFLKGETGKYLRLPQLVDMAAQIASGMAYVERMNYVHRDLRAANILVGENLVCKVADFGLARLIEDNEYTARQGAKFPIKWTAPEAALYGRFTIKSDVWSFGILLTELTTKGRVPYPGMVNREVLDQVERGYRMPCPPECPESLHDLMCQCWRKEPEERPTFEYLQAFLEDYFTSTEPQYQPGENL

ZAP70 (human) = ZAP70 (human) (UniProt P43403); details: compound 1.0 µM; ATP 15 µM

AKT3 (human), Q9Y243 [S472D], sequence (Q9Y243 whole entry S472D, looked up): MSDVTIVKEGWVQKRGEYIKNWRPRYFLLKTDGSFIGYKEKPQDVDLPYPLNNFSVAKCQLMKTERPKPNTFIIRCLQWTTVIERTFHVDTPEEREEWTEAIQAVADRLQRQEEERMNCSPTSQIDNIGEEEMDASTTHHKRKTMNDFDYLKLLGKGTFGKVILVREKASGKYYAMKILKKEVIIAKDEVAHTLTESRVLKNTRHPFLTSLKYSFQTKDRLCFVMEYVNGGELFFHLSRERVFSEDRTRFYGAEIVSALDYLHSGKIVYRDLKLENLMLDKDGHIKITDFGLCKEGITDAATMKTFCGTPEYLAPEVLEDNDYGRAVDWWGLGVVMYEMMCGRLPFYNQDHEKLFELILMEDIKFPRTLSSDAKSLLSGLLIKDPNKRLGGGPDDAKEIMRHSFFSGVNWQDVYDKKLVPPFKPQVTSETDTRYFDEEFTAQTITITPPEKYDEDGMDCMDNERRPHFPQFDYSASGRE

- residual activity [1]: 109%
- residual activity [2]: 89%
- residual activity [3]: 96%
- residual activity [4]: 17%
- residual activity (BRSK1 (human)): 74%
- residual activity (CDK1 CCNB1 (human)): 66%
- residual activity (EGFR (human)): 100%
- residual activity [5]: 41%
- residual activity (EPHA5 (human)): 102%
- residual activity (EPHA7 (human)): 101%
- residual activity [6]: 103%
- residual activity (EPHB4 (human)): 103%
- residual activity (ERBB4 (human)): 84%
- residual activity (FGFR1 (human)): 5%
- residual activity (FLT1 (human)): 5%
- residual activity [7]: 2%
- residual activity [8]: 10%
- residual activity [9]: 94%
- residual activity (HIPK3 (human)): 102%
- residual activity [10]: 43%
- residual activity [11]: 95%
- residual activity (LCK (human)): 50%
- residual activity (MAP2K6 (human)): 117%
- residual activity (MAP2K7 (human)): 69%
- residual activity (MAP3K7 (human)): 75%
- residual activity (MAP3K9 (human)): 61%
- residual activity (MAPK10 (human)): 53%
- residual activity (MAPK14 (human)): 124%
- residual activity [12]: 104%
- residual activity [13]: 97%
- residual activity (NEK2 (human)): 65%
- residual activity (PDPK1 (human)): 105%
- residual activity (PRKCB1 (human)): 104%
- residual activity (RET (human)): 2%
- residual activity (RPS6KA2 KD1 KD2 (human)): 66%
- residual activity [14]: 96%
- residual activity (SRC (human)): 125%
- residual activity (ZAP70 (human)): 127%
SMILES: CN(C)S(=O)(=O)Nc1ccc2ccc3ncc(-c4cnn(C)c4)cc3c(=O)c2c1
